Results on 2 compounds are retold here after US9180111B2, “Reduction in complement activation and inflammation during tissue injury by carotenoids, carotenoid analogs, or derivatives thereof” (Cardax Pharma, Inc., priority 2005, dated 2015).

A short description of data set [1]: Determination of aqueous solubility/dispersibility. The format is physicochemical. Here is the method:
(§1) 30.13 mg of 3 was added to 1 mL of USP-purified water. The sample was rotated for 2 hours, then centrifuged for 5 minutes. After centrifuging, solid was visible in the bottom of the tube. A 125-μL aliquot of the solution was then diluted to 25 mL. The sample was analyzed by UV/Vis spectroscopy at 436 nm, and the absorbance was compared to a standard curve compiled from 4 standards of known concentration. The concentration of the original supernatant was calculated to be 2.85 mg/mL and the absorptivity was 36.94 AU*mL/cm*mg. Slight error may have been introduced by the small size of the original aliquot.
as §1, with “Next, 30.80” for “30.13”, “9” for “3”, “411” for “436”, “29.27” for “2.85”, “2.90” for “36.94”

Data set [2] addresses human serum albumin (HSA) (Homo sapiens, UniProt P02768). Nature of the data set: Plasma-protein binding studies in vitro.

Chain of human serum albumin (HSA) (P02768 25-609): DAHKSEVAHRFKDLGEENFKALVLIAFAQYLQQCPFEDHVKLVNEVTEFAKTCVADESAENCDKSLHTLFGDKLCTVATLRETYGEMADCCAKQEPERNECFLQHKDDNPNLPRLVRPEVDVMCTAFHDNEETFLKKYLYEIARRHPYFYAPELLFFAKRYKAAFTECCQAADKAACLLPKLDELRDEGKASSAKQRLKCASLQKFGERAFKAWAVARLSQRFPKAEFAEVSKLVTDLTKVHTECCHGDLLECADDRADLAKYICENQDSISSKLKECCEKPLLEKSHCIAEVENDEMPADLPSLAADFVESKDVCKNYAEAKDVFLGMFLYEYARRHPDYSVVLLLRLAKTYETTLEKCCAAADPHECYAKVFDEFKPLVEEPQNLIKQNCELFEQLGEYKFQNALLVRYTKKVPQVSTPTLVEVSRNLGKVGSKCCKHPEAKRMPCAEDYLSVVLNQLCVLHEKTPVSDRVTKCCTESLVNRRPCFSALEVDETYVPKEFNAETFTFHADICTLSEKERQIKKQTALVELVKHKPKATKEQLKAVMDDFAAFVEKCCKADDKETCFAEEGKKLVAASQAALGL

Turning to `CC1=C(/C=C/C(C)=C/C=C/C(C)=C/C=C/C=C(C)/C=C/C=C(C)/C=C/C2=C(C)C(=O)[C@@H](O)CC2(C)C)C(C)(C)C[C@H](O)C1=O` [astaxanthin, reference compound], in data set [1], the “solubility in water” value is given as “insoluble in water”. As for `CC1=C(/C=C/C(C)=C/C=C/C(C)=C/C=C/C=C(C)/C=C/C=C(C)/C=C/C2=C(C)C(=O)C(OC(=O)CCC(=O)O)CC2(C)C)C(C)(C)CC(OC(=O)CCC(=O)O)C1=O` [meso-(3R,3S)-disodium disuccinate astaxanthin derivative], the “binding to human serum albumin” value in data set [2] is “bound immediately and preferentially to human serum albumin”.
